Several values for one entry are separate records, joined by “and”; a condition that tells them apart may be missing. Identical values can stand only once. Like-named read-outs stand apart in the source and are kept apart here.
Key:
[1] = biological target: T1, wild-type mouse Pgp (MDR3) (Mus musculus, UniProt P21447); experiment: in vitro
Method: Overexpression of wild-type mouse Pgp (MDR3) was achieved by using genetically engineered strains of Pichia pastoris with a 6X histidine tag. The cells were cultured in glycerol media, and methanol was used to induce the overexpression of Pgp at the Bioexpression and Fermentation Facility (BFF), University of Georgia, Athens, GA, USA. A repeated cycle of freezing using liquid nitrogen, blending, and thawing was used to lyse the Pgp-expressing P. pastoris cells. The protein was purified using affinity chromatography with nickel-nitrilotriacetic acid (Ni-NTA) resin (Thermo Fisher Scientific, Waltham, MA, USA). DDM was used to solubilize the protein, and the solution was concentrated using Amicon Ultra-15 100 kDa cut-off filters (EMD Millipore, Billerica, MA, USA). The concentration of purified protein was measured at 280 nm using a calculated extinction coefficient of 1.28 per mg mL^−1 on a Nanodrop (DeNovix, Wilmington, DE, USA). […] The purified DDM-solubilized Pgp was aliquoted and stored at −80 °C for future analysis.
Approximately 40 µL of DDM-solubilized Pgp was dialyzed for two hours against HEPES buffer (20 mM HEPES, 100 mM NaCl, 5 mM MgCl2, 2 mM DTT, pH 7.4) to remove any remnants of the detergent, DDM. The dialyzed protein was mixed with 4 mg mL^−1 of the extruded liposomes and incubated on ice for at least one hour to allow Pgp to integrate into the liposomes. To remove any additional detergent and further facilitate Pgp integration into the liposome, the solution was dialyzed for a second time for two hours in HEPES buffer to form proteoliposomes, and the concentration of Pgp reconstituted in liposomes was determined using the Bio-Rad DC Protein assay. Finally, the solution was aliquoted and stored at −80 °C for future use.
The intrinsic tryptophan residues in the protein can be selectively excited and emitted at 295 nm and 330 nm wavelengths, respectively. The binding of the drug to the protein can alter the spatial arrangement encountered by the tryptophan residue(s) and thereby regulate the fluorescence intensity of the protein [52]. […] Proteoliposomes diluted to 1 µM in Chifflet buffer containing 2 mM DTT were titrated against varying concentrations of drugs. The intrinsic protein fluorescence was measured at 330 nm upon excitation at 295 nm using an Olis DM 45 spectrophotometer (Olis Corporation, Bogart, GA, USA). To nullify the effect of Rayleigh bands on the observed spectra, a 10 nm band-pass filter was inserted on the excitation and emission paths of the spectrophotometer. The drug-induced quenching of intrinsic Pgp fluorescence was corrected (Fcorrected) for factors such as dilution, background fluorescence, and inner filter effects using the equation mentioned below (Equation (2)).(2) Fcorrected=F−B10^εexbex+εembemQ/2 where Fcorrected = Drug-induced quenching of intrinsic Pgp fluorescence; F = Emitted intrinsic Pgp fluorescence at 330 nm; [Q] = Concentration of drug; εex and εem = Excitation and emission extinction coefficients, respectively; bex and bem = Path lengths of excitation (0.4 mm) and emission (10 mm) wavelengths, respectively; and B = Background fluorescence measured from drug and solvent.
The resulting quenching curves were fit using a modified Stern-Volmer equation (Equation (3)), as follows:(3) Fcorrected=FOcorrected/1+KsvQ+Funquenched where Fcorrected = The corrected fluorescence; F0(corrected) = Fluorescence recorded in the absence of drug; [Q] = Concentration of drug; Ksv = Stern–Volmer constant; and F(unquenched) = unquenched fluorescence.

[2] = biological target: T1, wild-type mouse Pgp (MDR3)
Description: The STDD NMR technique is a robust method used to characterize the interaction between a drug and receptor protein [36, 86]. This technique utilizes a saturated low-strength radio frequency (RF) to selectively excite the receptor protein. […] Due to the localization of Pgp, most of its substrates are lipophilic, resulting in a probable non-specific interaction between its substrates and liposomes in the observed STD NMR spectrum. Therefore, STD NMR of liposomes in the presence of drugs was performed. The resulting spectrum was subtracted from the ^1H STD NMR spectrum obtained from the drug in the presence of proteoliposome (Pgp reconstituted into liposome) to achieve a saturation transfer double-difference (STDD) NMR spectrum, which nullified the STD observations of the drugs in the presence of liposomes.
This technique was performed as previously described. […] The NMR tubes with the sample were centrifuged at 3000× g for 5 min. To suppress the background signals caused by water, a tailored gradient pulse sequence known as water suppression by gradient-tailored excitation (WATERGATE) was also included. A train of 50 ms Gaussian-shaped selective pulses was used to selectively excite and saturate Pgp for two seconds, and a relaxation delay of five seconds was also used. The STD NMR spectra for both the control and the samples were obtained through phase cycling, where the Pgp irradiation resonance was alternated between 1.5 ppm and 42 ppm on and off resonance, respectively, for 512 scans, creating the ^1H NMR spectrum.
For this experiment, the NMR studies were performed on a Bruker Avance NEO 800 MHz NMR spectrometer with a 1.7 mm TCI H{CN} probe at 25 °C. The STD NMR data generated were analyzed using iNMR software (Nucleomatic, Molfetta, Italy), Igor Pro 6.2, and Mnova 14.2.0 (Mastrelab Research S.L., Santiago de Compostela, Spain).

Pgp = details: CLEFF9 cells, cited from earlier work
[3] = system: Pgp mutants F336A and I340A; details: cited from earlier work
[4] = 1 µM proteoliposome, excitation 295 nm, emission 330 nm, absence of ATP and co-factors

T1 sequence (P21447 whole entry): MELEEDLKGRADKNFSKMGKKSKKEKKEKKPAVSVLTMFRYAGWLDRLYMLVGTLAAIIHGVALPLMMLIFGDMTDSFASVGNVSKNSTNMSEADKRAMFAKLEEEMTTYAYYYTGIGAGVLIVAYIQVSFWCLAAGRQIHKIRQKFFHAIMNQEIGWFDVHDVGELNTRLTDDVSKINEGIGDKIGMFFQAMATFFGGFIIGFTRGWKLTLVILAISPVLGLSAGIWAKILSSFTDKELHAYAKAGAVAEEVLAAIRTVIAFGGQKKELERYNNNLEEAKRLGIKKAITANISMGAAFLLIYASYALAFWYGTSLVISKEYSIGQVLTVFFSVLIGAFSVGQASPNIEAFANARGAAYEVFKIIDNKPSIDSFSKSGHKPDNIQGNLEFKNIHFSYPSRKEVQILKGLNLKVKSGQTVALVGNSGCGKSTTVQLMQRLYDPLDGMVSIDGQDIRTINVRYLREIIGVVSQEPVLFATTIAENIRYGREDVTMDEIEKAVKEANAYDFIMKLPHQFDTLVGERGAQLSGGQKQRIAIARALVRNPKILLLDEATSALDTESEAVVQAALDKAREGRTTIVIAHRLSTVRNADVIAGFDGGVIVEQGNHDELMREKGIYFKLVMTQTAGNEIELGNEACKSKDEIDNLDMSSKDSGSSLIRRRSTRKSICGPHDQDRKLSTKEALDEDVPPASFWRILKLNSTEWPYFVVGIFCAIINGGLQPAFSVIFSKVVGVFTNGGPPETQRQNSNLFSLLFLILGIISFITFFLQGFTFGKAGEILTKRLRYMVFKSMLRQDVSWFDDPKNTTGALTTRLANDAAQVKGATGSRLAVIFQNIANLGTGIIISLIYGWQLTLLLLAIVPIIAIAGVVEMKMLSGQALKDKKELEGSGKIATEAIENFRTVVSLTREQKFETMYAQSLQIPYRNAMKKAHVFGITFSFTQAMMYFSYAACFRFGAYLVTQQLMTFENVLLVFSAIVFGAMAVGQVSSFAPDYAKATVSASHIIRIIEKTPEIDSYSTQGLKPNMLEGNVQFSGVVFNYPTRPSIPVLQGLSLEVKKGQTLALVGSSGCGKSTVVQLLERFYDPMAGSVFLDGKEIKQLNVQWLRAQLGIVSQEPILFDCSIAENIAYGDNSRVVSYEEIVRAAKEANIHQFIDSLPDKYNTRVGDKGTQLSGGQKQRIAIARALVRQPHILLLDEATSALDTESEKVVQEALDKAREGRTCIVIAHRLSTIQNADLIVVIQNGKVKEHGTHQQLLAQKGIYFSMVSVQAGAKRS

C[C@]12CC[C@H](O)C[C@H]1CC[C@@H]1[C@@H]2C[C@@H](O)[C@]2(C)[C@@H](C3=CC(=O)OC3)CC[C@]12O [Digoxigenin, 3β,12β,14-Trihydroxy-5β,20(22)-cardenolide]
Stern-Volmer constant (Ksv) from CG-induced tryptophan fluorescence quenching in Pgp [1, 4]: 0.09839 ± 0.0146 µM⁻¹
Interaction (Region/Group) Pgp (STDD-NMR Data) ([2]; 1 mM drug, 1 µM Pgp, 25 °C): Protons on C1, C3,C12, C17, C18, C19 of steroid; C21, C22 of lactone
Decrease of transport rate on treatment with erythromycin (Pgp): about 43%

C[C@]12CC[C@H](O)C[C@H]1CC[C@@H]1[C@@H]2CC[C@]2(C)[C@@H](C3=CC(=O)OC3)CC[C@]12O [Digitoxigenin, (3β,5β)-3,14-Dihydroxy-card-20(22)-enolide]
Kd [1]: 56.7 ± 15.6 µM
Stern-Volmer constant (Ksv) from CG-induced tryptophan fluorescence quenching in Pgp [1, 4]: 0.01765 ± 0.0048 µM⁻¹
Interaction (Region/Group) Pgp (STDD-NMR Data) ([2]; 1 mM drug, 1 µM Pgp, 25 °C): Protons on C1, C12, C18, C19 of steroid; C22 of lactone

C[C@H]1O[C@@H](O[C@H]2[C@@H](O)C[C@H](O[C@H]3[C@@H](O)C[C@H](O[C@H]4CC[C@@]5(C)[C@H](CC[C@@H]6[C@@H]5C[C@@H](O)[C@]5(C)[C@@H](C7=CC(=O)OC7)CC[C@]65O)C4)O[C@@H]3C)O[C@@H]2C)C[C@H](O)[C@@H]1O [Digoxin]
Kd [1]: 6.85 ± 0.83 µM
Stern-Volmer constant (Ksv) from CG-induced tryptophan fluorescence quenching in Pgp [1]: 0.146 ± 0.0117 and 0.146 ± 0.0117 µM^−1
Interaction (Region/Group) Pgp (STDD-NMR Data) ([2]; mouse, not told, 1 mM, pH 7.4): Protons on C3,C18, C19 of steroid; C22 of lactone; C3,C5,C6 of sugar
Effect of erythromycin treatment on Pgp-mediated efflux rate (Pgp; in words): did not affect
Decrease of digoxin-Pgp interaction for mutants compared to wild-type Pgp [3]: two- to four-fold

Source: paper PMC12386283, “Elucidating the Complex Structural and Molecular Mechanisms Driving P-Glycoprotein-Mediated Transport of Cardiac Glycosides” (International Journal of Molecular Sciences, 2025)
